According to patent US20170014360A1, “METHODS OF TREATING CANCER USING RAD51 SMALL MOLECULE STIMULATORS” (The University of Chicago, priority 2014, published 2017):

Key:
RAD51 [1] = molecular target: T1, RAD51 (Homo sapiens, UniProt Q06609); details: cited from earlier work
T1 sequence (Q06609 1-339): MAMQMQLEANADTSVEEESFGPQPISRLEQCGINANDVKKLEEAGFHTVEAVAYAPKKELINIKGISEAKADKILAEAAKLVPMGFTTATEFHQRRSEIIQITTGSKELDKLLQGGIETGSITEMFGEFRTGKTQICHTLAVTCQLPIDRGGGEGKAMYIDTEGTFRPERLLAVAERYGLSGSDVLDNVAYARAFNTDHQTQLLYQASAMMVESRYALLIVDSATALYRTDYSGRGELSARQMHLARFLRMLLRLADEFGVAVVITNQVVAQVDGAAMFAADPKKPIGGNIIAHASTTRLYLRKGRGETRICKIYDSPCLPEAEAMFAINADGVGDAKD

PC3 tumors = assay: PC3 xenograft tumor model in athymic nude mice
Protocol: FIG. 7. […] PC3 tumors were induced in the hind limbs of athymic nude mice. Mice were then randomized into two treatment groups. Starting on day 0, mice then received 5 daily intra-peritoneal injections with either RS-1 (110 mg/kg) or vehicle alone control. Median tumor volume is plotted, normalized to the starting tumor volume on day 0.
An in-vivo tumor model was used to further test the concept of RAD51 stimulation as a cancer treatment. Subcutaneous xenograft PC3 tumors were induced in the hind limbs of athymic nude mice, and the mice were subsequently treated with daily intra-peritoneal injections of RS-1 for five consecutive days. The daily dose administered to the mice was designed to yield an idealized concentration of 300 μM within the aqueous compartment of a mouse, based on an assumption of homogenous distribution across a 21 gm animal that is composed of 70% water.
Xenograft tumors were induced in the hind limbs of athymic nude mice by subcutaneous injection of 1×10^6 PC3 cells, and tumors were allowed to grow to an average volume of about 50 mm^3. Mice were then were randomized into treatment groups, each consisting of 7 mice. […] Tumor measurements were taken 3 times per week with a caliper and expressed as tumor volume, which was approximated from the product of width×length×height×0.5.

[2] = tested on: PC3 prostate cancer cells; assay: Immunofluorescence microscopy to detect RAD51 and RPA foci in PC3 cells; format: cell-based, human
Protocol: (§1) FIGS. 6A-6B. […] FIG. 6A: Cells were grown on cover slips, incubated for 6 hours in media containing 60 μM RS-1. In the 8 Gy radiation control condition, cells were irradiated 6 hours before harvest. Cells were subsequently indirectly immunostained. […] FIG. 6B: Fifty randomly selected nuclei per treatment group were examined and discrete foci were quantified.
(§2) Some cancer cells that strongly overexpress RAD51 are known to develop spontaneous RAD51 nuclear complexes (Raderschall, et al., 2002). […] PC3 prostate cancer cells and normal primary human fibroblasts (MRC-5) were treated with RS-1 and examined by immunofluorescence microscopy. To determine whether RAD51-staining structures represented sites of DNA repair vs. non-damage-associated sites, nuclei were counterstained for RPA, which forms punctuate sub-nuclear foci specifically in response to DNA damage at sites that colocalize with damage-induced RAD51 foci (Golub, et al., 1998).
(§3) Cells were grown on coverslips and treated with RS-1 or radiation as indicated. They were subsequently fixed with 3% paraformaldahyde/3.4% sucrose, and permeabilized with a standard buffer (20 mM HEPES pH 7.4, 0.5% TritonX-100, 50 mM NaCl, 3 mM MgCl2, 300 mM sucrose). […] Images were recorded at a single representative focal plane using a CCD camera. For each experimental condition, 50 randomly selected nuclei were quantified using NIH Image software.

PC3 cells = assay: Cell survival assay in PC3 cells (with or without siRNA knockdown); format: cell-based, human
Protocol: PC3 cells were treated with various concentrations of RAD51 siRNA for 48 hours. […] Following RNAi, cells were allowed to grow for 7 days and assayed for viability in the absence of additional treatment. FIG. 3B: Following RNAi, cells were incubated for 24 hours in media containing varying concentrations of RS-1. Cells were then allowed to grow in drug-free media for an additional 6 days. Average survival for each condition is normalized to the 0 μM RS-1 control of that condition.
PC3 cells were treated with siRNA against RAD54L, RAD54B, both, or a non-silencing (NS) control for 48 hours. Following RNAi, cells were subsequently incubated for 24 hours in media containing varying concentrations of RS-1. Cells were then allowed to grow in RS-1-free media for an additional 6 days. Average survival for each condition is normalized to the 0 μM RS-1 control of that condition.
(§4) Cells were plated into 96-well tissue culture plates at a density of 300 cells per well in the presence or absence of RS-1 for 24 hours at 37° C., 5% CO2. RS-1 was then removed, and cultures were allowed to grow for approximately one week to a 50-70% confluence. Average survival from six replicates was measured using CellGlo reagent (Promega), and error bars represent the standard error.
The RAD51 siRNA and the All-Stars negative control siRNA (NS) were ordered from Qiagen. RAD54B siRNAs were ordered from Invitrogen (Stealth). The RAD54L siRNA cocktail was ordered from Santa Cruz (sc-36362). All siRNAs were transfected using RNAiMax as per manufacturer's instructions (Invitrogen). Briefly, 2.0×10^5 cells were plated in 6 well dishes containing siRNA complexes to achieve the desired final concentration of siRNAs. The RAD54B and RAD54L siRNAs consisted of a cocktail of three independent siRNAs. The concentration of siRNAs transfected were 25 nM for RAD54L and 50 nM RAD54B. Co-depletion of RAD54L and RAD54B was performed by transfecting cells simultaneously with both siRNAs. At 48 hours post transfection, cells were harvested for cell survival assays and western blotting as described.

HT1080 cells = assay: Cell survival assay in HT1080 cells with doxycycline-repressible RAD51 transgene; format: cell-based, human; details: HT1080, RAD51 overexpression by doxycycline removal; 24 hours RS-1, 6 days drug-free
Protocol: HT1080 cells carrying a doxycycline-repressible RAD51 transgene were pre-treated with varying levels of doxycycline for 24 hours. […] In lower panel, cells were subsequently incubated for 24 hours in media containing varying concentrations of RS-1. Cells were then allowed to grow in drug-free media for an additional 6 days, and indicated doxycycline concentrations were maintained throughout the entire experiment. Average survival for each condition is normalized to the 0 μM RS-1 control of that condition.
as §4
To confirm that RS-1 toxicity is directly related to RAD51 and translocases protein levels, these proteins were experimentally manipulated in cells. First, RAD51 was overexpressed in human fibrosarcoma HT1080 cells carrying a doxycycline-repressible RAD51 transgene.

[3] = tested on: normal primary human fibroblasts (MRC-5); assay: Immunofluorescence microscopy to detect RAD51 and RPA foci in MRC-5 cells; format: cell-based
Protocol: as §1, §2, §3

[4] = molecular target: T2, purified human RAD51 protein (Homo sapiens, UniProt Q06609); assay: Measurement of RAD51 binding to DNA by fluorescence polarization; details: 75 nM RAD51, various concentrations of RS-1, 100 nM DNA substrate
T2 sequence (Q06609 1-339): T1 sequence (Q06609 1-339)
Protocol: Various concentrations of RS-1 were incubated with purified hRAD51 protein and a fluorescently tagged DNA substrate, consisting of either a ssDNA oligonucleotide (DHD162-CD-CF) or a dsDNA double hairpin (DHD162). Binding of RAD51 to DNA was measured as a function of fluorescence polarization of the tag, as described in the methods section.
Experiments were performed as previously described with some modifications (Budke, et al., 2012). Briefly, 75 nM purified human RAD51 protein was incubated with various concentrations of RS-1 in FP reaction buffer at 37° C. for 40 minutes. FP reaction buffer consisted of 20 mM Hepes pH 7.5, 10 mM MgCl2, 0.25 μM BSA, 2% glycerol, 30 mM NaCl, 4% DMSO, 0.1 mM tris(2-carboxyethyl)phosphine (TCEP), and 2 mM ATP. Fluorescently tagged DNA substrate was then added to a final concentration of 100 nM (nucleotide concentration for ssDNA or base pair concentration for dsDNA) and incubated at 37° C. for another 40 minutes. DNA substrates consisted of either an Alexa Fluor 488-labeled oligo-dT 45-mer, a fluorescein-labeled ssDNA oligonucleotide (DHD162-CD-CF), or a fluorescein-labeled dsDNA double hairpin (DHD162) which were previously described (Budke, et al., 2013). Fluorescence polarization measurements were obtained as previously described (Budke, et al., 2012). […]

RAD51 [5] = molecular target: T1, RAD51; details: cited from earlier work; remark: listed apart in the source
[6] = 110 mg/kg intra-peritoneal, 5 daily injections

With O=C(Nc1ccc(Br)cc1)c1ccc(Br)c(S(=O)(=O)NCc2ccccc2)c1 [RS-1, 3-Benzylsulfamoyl-4-bromo-N-(4-bromo-phenyl)-benzamide] as the compound, how does the “protection of RAD51 filaments from high salt” value (RAD51 [1]; buffers containing high salt concentration) read?
The value was “protects these filaments from buffers containing high salt concentration”.

What about the “RAD51 filament formation (further study)” value (RAD51 [1]) of the same compound?
The value was “enhances RAD51 filament formation”.

And the “anti-tumor response relative to vehicle-alone control” value (PC3 tumors; [6])?
The value was “significant anti-tumor responses”.

What about the toxic deaths (PC3 tumors; [6]) of the same compound?
Its toxic deaths is “no toxic deaths observed”.

And the “delay in tumor regrowth relative to vehicle-alone control” value (PC3 tumors; 110 mg/kg intra-peritoneal, 5 daily injections, remaining tumors)?
The value was greater than 2 week.

What about the “tumors that completely disappeared after treatment and never regrew” value (PC3 tumors; 110 mg/kg intra-peritoneal, 5 daily injections, two month observation, 3 of 7) of the same compound?
Its value is 43%.

What about the transient weight loss (PC3 tumors; during the treatment week, regained post-treatment) of the same compound?
The transient weight loss was “about 10%”.

What about the “nuclei with >10 RAD51 foci/nucleus” value ([2]; PC3, 60 μM RS-1, 6 hours, no DNA damage) of the same compound?
Its value is 43%.

What about the “cells with >10 RPA foci/nucleus” value ([2]; PC3, after RS-1 treatment) of the same compound?
Its value is “Neither cell type exhibited >10 RPA foci/nucleus in any cells”.

And the “effect of RAD51 depletion on RS-1 induced toxicity” value (PC3 cells; PC3, RAD51 siRNA 48 hours, then 24 hours RS-1)?
The value was “significant protection from RS-1 induced toxicity”.

What about the LD90 (PC3 cells; PC3, relative to panel of cell lines) of the same compound?
The LD90 was “low LD90”.

What about the “effect of RAD54B or RAD54L knockdown on RS-1 toxicity” value (PC3 cells; PC3, siRNA 48 hours, then 24 hours RS-1) of the same compound?
The value was “significantly sensitized PC3 cells to RS-1 toxicity”.

What about the “sensitivity to RS-1 of cells with the highest RAD51 expression levels” value (HT1080 cells) of the same compound?
Its value is “significantly more sensitive to RS-1”.

What about the “nuclei with >10 RAD51 foci/nucleus” value ([3]; MRC-5, 60 μM RS-1, 6 hours) of the same compound?
Its value is “no MRCS nuclei exhibited >10 RAD51 foci/nucleus”.

And the “cells with >10 RPA foci/nucleus” value ([3]; MRC-5, after RS-1 treatment)?
Its value is “Neither cell type exhibited >10 RPA foci/nucleus in any cells”.

What about the “binding of RAD51 to ssDNA and dsDNA” value [4] of the same compound?
The value was “stimulates the binding of RAD51 to both ssDNA and dsDNA”.

What about the “DNA strand invasion activity of RAD51” value (RAD51 [5]) of the same compound?
The value was “capable of stimulating DNA strand invasion activity of RAD51”.
